Laboratory results published in patent US11993598B2, “Compounds for inhibiting EGFR kinase, preparation methods and uses thereof” (WIGEN BIOMEDICINE TECHNOLOGY (SHANGHAI) CO., LTD., priority 2019, dated 2024).

Tested on: PC9 cells expressing luciferase
Experiment: In vivo orthotopic brain PC9 xenograft mouse model
Conditions: oral
Method: Assay 4. In vivo orthotopic brain PC9 xenograft mouse model
3×10^5 PC9 cells expressing luciferase were injected to the mouse brain. Mice were randomized based on brain flurorescence intensity and body weight, and were orally administered vehicle or compound 1. Survival and body weights were monitored every day and mice with more than 20% body weight loss were sacrificed.

Measured: Mice Survival Rate (%)

C=CC(=O)Nc1cc(Nc2nccc(-n3c(=O)n4c5c(cc(F)cc53)CCC4)n2)c(OC)cc1N(C)CCN(C)C [Compound 1, N-(2-((2-(dimethylamino)ethyl)(methyl)amino)-5-((4-(8-fluoro-2-oxo-5,6-dihydro-4H-imidazo[4,5,1-ij]quinolin-1(2H)-yl)pyrimidin-2-yl)amino)-4-methoxyphenyl)acrylamide]
100%: 30 mg/kg QD, Day 16 | 30 mg/kg QD, Day 17 | 30 mg/kg QD, Day 18 | 30 mg/kg QD, Day 22 | 30 mg/kg QD, Day 24 | 30 mg/kg QD, Day 26 | 30 mg/kg QD, Day 28 | 60 mg/kg BID, Day 16 | 60 mg/kg BID, Day 17 | 60 mg/kg BID, Day 18 | 60 mg/kg BID, Day 22 | 60 mg/kg BID, Day 24 | 60 mg/kg BID, Day 26 | 60 mg/kg BID, Day 28 | 60 mg/kg QD, Day 16 | 60 mg/kg QD, Day 17 | 60 mg/kg QD, Day 18 | 60 mg/kg QD, Day 22 | 60 mg/kg QD, Day 24 | 60 mg/kg QD, Day 26 | 60 mg/kg QD, Day 28
